Data set [1] concerns GLP-1 receptor (hGLP-1R/GST). The data set is described as follows: Binding activity with the GLP-1 receptor by surface plasmon resonance (BIACORE 3000), 1:1 Langmuir fitting. On the set-up: species or system human. The settings on record: SPR, hGLP-1R/GST immobilized to CM5 chip. An excerpt: The expressed hGLP-1R/GST was immobilized to a CM5 chip by amine coupling. […].
In general terms: Surface plasmon resonance follows binding to a sensor surface in real time, without labels.

The nature of data set [2]: N-terminal charge at pH 7.4. The data set is classed as physicochemical.

Sequence of GLP-1 receptor (hGLP-1R/GST) (P43220 24-139 limits assumed): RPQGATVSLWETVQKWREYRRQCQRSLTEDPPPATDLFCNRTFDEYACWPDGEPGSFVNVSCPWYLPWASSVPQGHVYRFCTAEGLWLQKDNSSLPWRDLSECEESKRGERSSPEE

In general, Kd refers to a measure of binding affinity in units of concentration. The low end stands for tighter binding, the high end for weaker binding. As to “desamino-histidyl-exendin-4 [DA-exendin-4]”, in data set [1], the Ka was 1.13 ± 0.08 1/Ms, ×10^5; the Kd came to 32.2 ± 1.89 nM; the kd is on record as 36.5 ± 1.40 1/s, ×10^4. Also, the “N-terminal charge at pH 7.4” value in data set [2] was “Neutral”.
Turning to “beta-hydroxy imidazopropionyl-exendin-4 [HY-exendin-4]”, in data set [1], the Ka was 0.90 ± 0.07 1/Ms, ×10^5; binding was characterised by a dissociation constant (Kd) of 42.7 ± 4.1 nM; the kd is 38.3 ± 1.92 1/s, ×10^4. Moreover, the “N-terminal charge at pH 7.4” value in data set [2] is given as “Neutral”.
In the case of imidazoacetyl-exendin-4 [CA-exendin-4], in data set [1], the Ka is 1.20 ± 0.11 1/Ms, ×10^5; binding was characterised by a dissociation constant (Kd) of 26.3 ± 2.08 nM; the kd was 31.5 ± 0.56 1/s, ×10^4. Also, the “N-terminal charge at pH 7.4” value in data set [2] is recorded as “Neutral”.
Consider DA-exendin-4-propyl-amide, for which, in data set [1], the Ka is on record as 1.04 ± 0.11 1/Ms, ×10^5; the Kd is 32.6 ± 4.17 nM; the kd was 33.5 ± 1.40 1/s, ×10^4. Further, the “N-terminal charge at pH 7.4” value in data set [2] is recorded as “Neutral”.

Values taken from patent US9663565B2, “Insulinotropic peptide derivative with modified N-terminal charge” (HANMI PHARM. CO., LTD., priority 2013, dated 2017).
